How the values were obtained:
[1] = system: Triton-induced hyperlipidemic rats; test: Antihyperlipidemic activity in Triton-induced hyperlipidemic rats, method A (24 hours) (Test 2); type: in vivo, rat (male S.D.)
Protocol: (§1) Cholesterol in serum was measured by means of a cholesterol measuring kit (Cholesterol C-Test Wako, manufactured by Wako Junyaku Co., Ltd.), and cholesterol in HDL was measured by means of NC Hi-Set, manufactured by Nippon Chemiphar Co., Ltd. The quantitative analysis of triglyceride was conducted by means of a triglyceride measuring kit (Triglyceride C-II-Test Wako, manufactured by Wako Junyaku Co., Ltd.). Further, the change rate in the following Tables, was calculated by the following equation. Change rate(%)=(A-B/A)×100 where A is the amount of serum lipids (mg/dl) of the control group, and B is the amount of serum lipids (mg/dl) of the group to which the therapeutic agent was administered. The antihyperlipidemic activity in Triton-induced hyperlipidemic rats Male S.D. rats weighing 230-250 g (7 weeks old) were divided into groups of 5 rats each and injected with a physiological saline solution of Triton Wr-1339 in a dose of 250 mg/kg (5 ml/kg) i.v. through the tail vein. […] The test compounds suspended in 0.5% CMC-Na were given to the rats in an amount of 2 ml/kg via stomach tube 1 hour before and 5 hours after (in the case of method A) or 1 hour before and 23 hours after (in the case of method B) the injection of Triton solution. Control rats received the same volume of the vehicle. The animals were fasted during the experimental period. The total cholesterol and triglyceride in the serum were measured.

[2] = system: Triton-induced hyperlipidemic rats; test: Antihyperlipidemic activity in Triton-induced hyperlipidemic rats, method B (43 hours) (Test 2); type: in vivo, rat (male S.D.)
Protocol: as §1

[3] = system: emulsion-induced hyperlipidemic rats; test: Antihyperlipidemic activity in emulsion-induced hyperlipidemic rats (Test 1); type: in vivo, rat (male S.D.); settings: 300 mg/kg/day p.o., 3 days
Protocol: The daily dose of the compound of the formula I is from 0.01 to 3.0 g, preferably from 0.1 to 1.5 g, for an adult. It is administered from once to three times per day. The dose may of course be varied depending upon the age, the weight or the condition of illness of the patient. Now, the usefulness of the compound of the formula I as an antiatherosclerotic agent will be shown by tests. In the following tests, the fractionation of lipoproteins was conducted by a dextran sulfate-MgCl2 precipitation method.
(§2) Cholesterol in serum was measured by means of a cholesterol measuring kit (Cholesterol C-Test Wako, manufactured by Wako Junyaku Co., Ltd.), and cholesterol in HDL was measured by means of NC Hi-Set, manufactured by Nippon Chemiphar Co., Ltd. The quantitative analysis of triglyceride was conducted by means of a triglyceride measuring kit (Triglyceride C-II-Test Wako, manufactured by Wako Junyaku Co., Ltd.).
(§3) Further, the change rate in the following Tables, was calculated by the following equation.
(§4) Change rate(%)=(A-B/A)×100
(§5) where A is the amount of serum lipids (mg/dl) of the control group, and B is the amount of serum lipids (mg/dl) of the group to which the therapeutic agent was administered.
The antihyperlipidemic activity in emulsion-induced hyperlipidemic rats
Male S.D. rats weighing 80-90 g (4 weeks old) were used. They were divided into groups of 5 to 6 rats each. The test compounds suspended in 0.5% CMC-Na(carboxymethyl cellulose sodium salt) were given to the rats in a daily dose of 4 ml/kg via stomach tube every 10:00 a.m. After 30 min., lipids emulsion having the following composition was orally given to the rats in an amount of 2.5 ml per rat. During the experimental period of 3 days, the rats were fed on a standard commercial diet and water ad libitum. […] The total cholesterol and triglyceride, and HDL cholesterol were measured.

[4] = system: cholesterol-fed hyperlipidemic rats; test: Antihyperlipidemic activity in cholesterol-fed hyperlipidemic rats (Test 3); type: in vivo, rat (male S.D.)
Protocol: (§6) It is administered from once to three times per day. The dose may of course be varied depending upon the age, the weight or the condition of illness of the patient. […] In the following tests, the fractionation of lipoproteins was conducted by a dextran sulfate-MgCl2 precipitation method.
as §2, §3
Change rate(%)=(A-B/A)×100 where A is the amount of serum lipids (mg/dl) of the control group, and B is the amount of serum lipids (mg/dl) of the group to which the therapeutic agent was administered.
The antihyperlipidemic activity in cholesterol-fed hyperlipidemic rats
Male S.D. rats weighing 80-90 g (30 days old) were divided into groups of 5 rats each. The test compounds suspended in 0.5% CMC-Na were given to the rats in a daily dose of 0.4 ml per 100 g rat via stomach tube every 10:00 a.m. for 7 or 14 days. Control groups were given an equal volume of the vehicle. […] The total cholesterol, triglyceride and HDL cholesterol in serum were measured. After sacrificed, the livers were excised, washed with physiological saline, blotted on filter paper and weighed. The degree of hepatomegaly was calculated by the following equation.
Degree of hepatomegaly (%)=(D-C/C)×100 where C is the liver weight (g) per 100 g body weight in the control animal, and D is the liver weight (g) per 100 g body weight in the drug treated animal.

normal rats = test: Activities against serum lipid, degree of hepatomegaly and GOT/GPT in normal rats (Test 5); type: in vivo, rat (male S.D.); settings: 300 mg/kg/day, seven days
Protocol: as §6, §2, §3, §4, §5
The activities against serum lipid, the degree of hepatomegaly and the hepatic drug metabolizing systems of normal rats
Male S.D. rats (6 weeks old) were divided into groups of 5 rats each. The test compounds suspended in 5% gum arabic were given to the rats once a day for seven days in a daily dose of 300 mg/kg. Then, the rats were fasted for one day, blood samples were taken, and the total cholesterol, triglyceride, HDL-cholesterol in the serum were quantitatively analyzed. Further, the liver weight was measured, and the degree of hepatomegaly was determined by comparing the weight ratio per 100 g of the body weight with that of the control group. Furthermore, GOT and GPT values were measured, and the activities of cytochrome P-450 and glutathione related enzymes were also measured. These values were compared with those of the control groups to investigate any abnormality.

[5] = reported for the agent and its derivatives; cited from earlier work
[6] = animal experiments; Svoboda and Azarnoff, Cancer Res. 39, 3419 (1979); cited from earlier work

Structure (SMILES): CCC(C)(Oc1ccc(C2(c3ccc(OC(C)(CC)C(=O)O)cc3)CCCCC2)cc1)C(=O)O (stereo not shown) [Clinofibrate]
- Change rate after 24 hours, Chol ([1]; 150 mg/kg p.o.): -21.0%
- Change rate after 24 hours, TG ([1]; 150 mg/kg p.o.): -33.0%
- Change rate after 43 hours, Chol ([2]; 150 mg/kg p.o.): -38.0%
- Change rate after 43 hours, TG ([2]; 150 mg/kg p.o.): -52.0%

Structure (SMILES): CCOC(=O)C(C)(C)Oc1ccc(Cl)cc1 [Clofibrate, reference compound]
- Serum lipid, HDL-Chol [3]: 16.8 mg/dL
- Serum lipid, TG [3]: 87.7 mg/dL
- Serum lipid, Total Chol [3]: 96.4 mg/dL
- Change rate, HDL-Chol ([3]; vs control): +37.0%
- Change rate, TG ([3]; vs control): -42.7%
- Change rate, Total Chol ([3]; vs control): -63.5%
- Change rate after 24 hours, Chol ([1]; 300 mg/kg p.o.): -5.0%
- Change rate after 24 hours, TG ([1]; 300 mg/kg p.o.): +89.7%
- Change rate after 43 hours, Chol ([2]; 300 mg/kg p.o.): -0.5%
- Change rate after 43 hours, TG ([2]; 300 mg/kg p.o.): +150.1%
- Change rate, HDL-Chol ([4]; 7th day, 50 mg/kg/day p.o.): -20.4%
- Change rate, TG ([4]; 7th day, 50 mg/kg/day p.o.): +8.7%
- Change rate, Total-Chol ([4]; 7th day, 50 mg/kg/day p.o.): -4.3%
- Degree of hepatomegaly ([4]; 7th day, 50 mg/kg/day p.o.): +6.0%
- Serum lipid, HDL-Chol ([4]; 7th day, 50 mg/kg/day p.o.): 14.4 mg/dL
- Serum lipid, TG ([4]; 7th day, 50 mg/kg/day p.o.): 133.5 mg/dL
- Serum lipid, Total-Chol ([4]; 7th day, 50 mg/kg/day p.o.): 417.5 mg/dL
- Change rate, HDL-Chol ([4]; 7th day, 150 mg/kg/day p.o.): -34.8%
- Change rate, TG ([4]; 7th day, 150 mg/kg/day p.o.): -9.0%
- Change rate, Total-Chol ([4]; 7th day, 150 mg/kg/day p.o.): -23.8%
- Degree of hepatomegaly ([4]; 7th day, 150 mg/kg/day p.o.): +20.0%
- Serum lipid, HDL-Chol ([4]; 7th day, 150 mg/kg/day p.o.): 11.8 mg/dL
- Serum lipid, TG ([4]; 7th day, 150 mg/kg/day p.o.): 111.8 mg/dL
- Serum lipid, Total-Chol ([4]; 7th day, 150 mg/kg/day p.o.): 332.2 mg/dL
- Change rate, HDL-Chol ([4]; 14th day, 50 mg/kg/day p.o.): +8.0%
- Change rate, TG ([4]; 14th day, 50 mg/kg/day p.o.): -30.1%
- Change rate, Total-Chol ([4]; 14th day, 50 mg/kg/day p.o.): -28.5%
- Degree of hepatomegaly ([4]; 14th day, 50 mg/kg/day p.o.): +8.8%
- Serum lipid, HDL-Chol ([4]; 14th day, 50 mg/kg/day p.o.): 9.4 mg/dL
- Serum lipid, TG ([4]; 14th day, 50 mg/kg/day p.o.): 116.6 mg/dL
- Serum lipid, Total-Chol ([4]; 14th day, 50 mg/kg/day p.o.): 418.4 mg/dL
- Change rate, HDL-Chol ([4]; 14th day, 150 mg/kg/day p.o.): +68.1%
- Change rate, TG ([4]; 14th day, 150 mg/kg/day p.o.): -29.8%
- Change rate, Total-Chol ([4]; 14th day, 150 mg/kg/day p.o.): -28.3%
- Degree of hepatomegaly ([4]; 14th day, 150 mg/kg/day p.o.): +22.8%
- Serum lipid, HDL-Chol ([4]; 14th day, 150 mg/kg/day p.o.): 15.8 mg/dL
- Serum lipid, TG ([4]; 14th day, 150 mg/kg/day p.o.): 117.7 mg/dL
- Serum lipid, Total-Chol ([4]; 14th day, 150 mg/kg/day p.o.): 420.0 mg/dL
- Serum lipid, HDL-Chol (normal rats): 11.0 mg/dL
- Serum lipid, TG (normal rats): 39.2 mg/dL
- Serum lipid, Total-Chol (normal rats): 20.6 mg/dL
- Change rate, HDL-Chol (normal rats; vs control): -62.7%
- Change rate, TG (normal rats; vs control): -17.5%
- Change rate, Total-Chol (normal rats; vs control): -56.0%
- Degree of hepatomegaly (normal rats; vs control): +72.0%
- Reported side effects [5]: myalgia or hepatic insufficiency, and they are likely to lead to gallstone formation
- Hepatic carcinoma [6]: brings about hepatic carcinoma

Structure (SMILES): O=C(O)c1cccnc1 [nicotinic acid]
- Reported side effects [5]: flashing or gastroenteric troubles

Source: US4624950A, “Method for treating atherosclerosis hyperlipidema, lipid deposition on arterial walls, or raising the ratio of high density lipoprotein cholesterol to total cholesterol in serum” (Nissan Chemical Industries Ltd., priority 1983, dated 1986)
